From ChEMBL document CHEMBL5715954, “Silencing c-Myc translation as a therapeutic strategy through targeting PI3Kδ and CK1ε in hematological malignancies” (Blood, 2017)

Tests used:
Set-up in all cases: scale not given: the % may be the effect or the level left
[1] = target: Casein kinase I isoform gamma-2 (Homo sapiens) (UniProt P78368); assay: Inhibition of human CK1g2 assessed as enzyme activity at 1 uM using KRRRAL[pS]VASLPGL as substrate preincubated for 20 mins followed by [gamma-33P]-ATP addition and measured after 120 mins by radiometric Hot-SpotSM Kinase assay relative to control
[2] = target: T1, Cytoplasmic tyrosine-protein kinase BMX (Homo sapiens) (UniProt P51813); assay: Inhibition of human BMX assessed as enzyme activity at 1 uM using poly[Glu:Tyr] (4:1) as substrate preincubated for 20 mins followed by [gamma-33P]-ATP addition and measured after 120 mins by radiometric Hot-SpotSM Kinase assay relative to control
T1 sequence (whole entry): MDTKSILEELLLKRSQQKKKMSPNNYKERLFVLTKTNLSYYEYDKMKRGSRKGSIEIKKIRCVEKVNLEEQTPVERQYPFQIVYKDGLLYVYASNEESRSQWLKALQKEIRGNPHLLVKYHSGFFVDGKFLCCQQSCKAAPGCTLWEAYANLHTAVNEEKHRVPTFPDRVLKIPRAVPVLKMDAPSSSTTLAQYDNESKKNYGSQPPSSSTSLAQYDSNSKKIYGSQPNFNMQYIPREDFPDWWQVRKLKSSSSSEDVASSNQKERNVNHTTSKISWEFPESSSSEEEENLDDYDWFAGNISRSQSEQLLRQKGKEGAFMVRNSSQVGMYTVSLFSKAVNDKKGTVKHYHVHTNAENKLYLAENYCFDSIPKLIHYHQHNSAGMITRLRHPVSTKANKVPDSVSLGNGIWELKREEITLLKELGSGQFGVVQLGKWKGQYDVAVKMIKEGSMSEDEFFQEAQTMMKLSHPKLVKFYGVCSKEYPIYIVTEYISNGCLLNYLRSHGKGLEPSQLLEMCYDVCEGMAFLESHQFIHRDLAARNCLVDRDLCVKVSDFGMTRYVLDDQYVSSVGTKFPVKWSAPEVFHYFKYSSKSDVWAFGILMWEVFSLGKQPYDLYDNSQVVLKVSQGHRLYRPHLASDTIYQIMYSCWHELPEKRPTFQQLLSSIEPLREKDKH

[3] = target: Mitogen-activated protein kinase 7 (Homo sapiens) (UniProt Q13164); assay: Inhibition of human ERK5 assessed as enzyme activity at 1 uM using myelin basic protein as substrate preincubated for 20 mins followed by [gamma-33P]-ATP addition and measured after 120 mins by radiometric Hot-SpotSM Kinase assay relative to control
[4] = target: T2, Serine/threonine-protein kinase Nek11 (Homo sapiens) (UniProt Q8NG66); assay: Inhibition of human NEK11 assessed as enzyme activity at 1 uM using myelin basic protein as substrate preincubated for 20 mins followed by [gamma-33P]-ATP addition and measured after 120 mins by radiometric Hot-SpotSM Kinase assay relative to control
T2 sequence (whole entry): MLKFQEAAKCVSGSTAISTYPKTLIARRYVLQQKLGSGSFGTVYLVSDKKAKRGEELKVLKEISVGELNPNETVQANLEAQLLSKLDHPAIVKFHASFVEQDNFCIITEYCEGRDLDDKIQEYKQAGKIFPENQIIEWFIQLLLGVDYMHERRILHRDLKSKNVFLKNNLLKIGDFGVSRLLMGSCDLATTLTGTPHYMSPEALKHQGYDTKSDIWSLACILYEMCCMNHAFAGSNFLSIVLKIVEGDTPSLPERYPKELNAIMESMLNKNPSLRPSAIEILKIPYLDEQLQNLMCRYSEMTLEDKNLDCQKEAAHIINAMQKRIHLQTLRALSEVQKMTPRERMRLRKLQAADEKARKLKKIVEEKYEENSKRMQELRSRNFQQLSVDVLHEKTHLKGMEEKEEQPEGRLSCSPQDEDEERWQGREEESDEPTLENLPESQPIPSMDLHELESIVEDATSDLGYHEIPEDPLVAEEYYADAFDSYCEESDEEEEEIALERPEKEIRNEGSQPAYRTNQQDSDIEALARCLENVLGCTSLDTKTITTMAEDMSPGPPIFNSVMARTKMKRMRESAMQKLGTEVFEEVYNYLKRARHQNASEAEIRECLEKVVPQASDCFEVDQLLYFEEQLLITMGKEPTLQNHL

[5] = target: T3, Serine/threonine-protein kinase tousled-like 1 (Homo sapiens) (UniProt Q9UKI8); assay: Inhibition of human TLK1 assessed as enzyme activity at 1 uM using histone H3 as substrate preincubated for 20 mins followed by [gamma-33P]-ATP addition and measured after 120 mins by radiometric Hot-SpotSM Kinase assay relative to control
T3 sequence (whole entry): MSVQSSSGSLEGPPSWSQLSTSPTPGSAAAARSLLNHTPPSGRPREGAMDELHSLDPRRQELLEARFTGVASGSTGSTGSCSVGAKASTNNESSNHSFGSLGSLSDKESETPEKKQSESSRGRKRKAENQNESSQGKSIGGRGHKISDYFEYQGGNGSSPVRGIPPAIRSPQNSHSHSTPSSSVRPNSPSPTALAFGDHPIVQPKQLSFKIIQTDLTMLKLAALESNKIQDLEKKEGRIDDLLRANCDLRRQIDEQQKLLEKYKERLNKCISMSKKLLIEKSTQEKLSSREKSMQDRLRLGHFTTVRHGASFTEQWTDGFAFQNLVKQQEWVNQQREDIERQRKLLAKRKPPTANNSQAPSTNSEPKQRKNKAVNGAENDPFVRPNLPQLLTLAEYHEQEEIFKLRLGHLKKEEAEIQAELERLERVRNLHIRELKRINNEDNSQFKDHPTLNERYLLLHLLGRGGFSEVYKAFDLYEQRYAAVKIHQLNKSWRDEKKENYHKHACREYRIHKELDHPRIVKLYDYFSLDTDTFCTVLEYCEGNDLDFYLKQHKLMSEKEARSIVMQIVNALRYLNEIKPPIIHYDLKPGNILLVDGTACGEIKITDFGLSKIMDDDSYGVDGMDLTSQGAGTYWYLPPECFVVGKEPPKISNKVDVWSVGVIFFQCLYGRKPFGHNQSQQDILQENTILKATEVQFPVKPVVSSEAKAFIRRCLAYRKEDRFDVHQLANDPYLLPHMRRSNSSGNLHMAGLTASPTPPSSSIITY

[6] = target: Phosphorylase b kinase gamma catalytic chain, skeletal muscle/heart isoform (Homo sapiens) (UniProt Q16816); assay: Inhibition of human PHKg1 assessed as enzyme activity at 1 uM using KKLNRTLSFAEPG as substrate preincubated for 20 mins followed by [gamma-33P]-ATP addition and measured after 120 mins by radiometric Hot-SpotSM Kinase assay relative to control
Chain of Phosphorylase b kinase gamma catalytic chain, skeletal muscle/heart isoform (Homo sapiens) (Q16816 whole entry, looked up, canonical isoform): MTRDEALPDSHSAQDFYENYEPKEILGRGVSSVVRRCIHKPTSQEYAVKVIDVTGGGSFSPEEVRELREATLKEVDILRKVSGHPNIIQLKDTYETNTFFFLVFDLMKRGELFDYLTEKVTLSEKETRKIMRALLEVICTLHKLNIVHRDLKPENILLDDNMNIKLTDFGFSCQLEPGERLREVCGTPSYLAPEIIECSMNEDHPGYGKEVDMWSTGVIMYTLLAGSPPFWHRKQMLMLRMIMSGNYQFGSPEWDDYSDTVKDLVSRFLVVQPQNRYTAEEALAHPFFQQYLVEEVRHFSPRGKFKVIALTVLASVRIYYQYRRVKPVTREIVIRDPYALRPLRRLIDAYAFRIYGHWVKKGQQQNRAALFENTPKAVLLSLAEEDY

Chain of Casein kinase I isoform gamma-2 (Homo sapiens) (P78368 whole entry, looked up, canonical isoform): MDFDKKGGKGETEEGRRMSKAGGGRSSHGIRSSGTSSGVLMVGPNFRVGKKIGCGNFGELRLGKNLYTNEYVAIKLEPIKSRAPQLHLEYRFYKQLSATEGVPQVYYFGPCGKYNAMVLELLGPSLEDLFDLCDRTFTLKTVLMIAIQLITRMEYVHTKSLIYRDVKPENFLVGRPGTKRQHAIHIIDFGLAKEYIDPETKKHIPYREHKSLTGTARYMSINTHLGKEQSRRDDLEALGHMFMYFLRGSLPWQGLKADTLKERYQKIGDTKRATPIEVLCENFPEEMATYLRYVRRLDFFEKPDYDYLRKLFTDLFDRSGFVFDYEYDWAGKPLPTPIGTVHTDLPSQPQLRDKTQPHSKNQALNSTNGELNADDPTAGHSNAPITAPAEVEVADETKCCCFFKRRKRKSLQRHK
Chain of Mitogen-activated protein kinase 7 (Homo sapiens) (Q13164 2-816 limits assumed): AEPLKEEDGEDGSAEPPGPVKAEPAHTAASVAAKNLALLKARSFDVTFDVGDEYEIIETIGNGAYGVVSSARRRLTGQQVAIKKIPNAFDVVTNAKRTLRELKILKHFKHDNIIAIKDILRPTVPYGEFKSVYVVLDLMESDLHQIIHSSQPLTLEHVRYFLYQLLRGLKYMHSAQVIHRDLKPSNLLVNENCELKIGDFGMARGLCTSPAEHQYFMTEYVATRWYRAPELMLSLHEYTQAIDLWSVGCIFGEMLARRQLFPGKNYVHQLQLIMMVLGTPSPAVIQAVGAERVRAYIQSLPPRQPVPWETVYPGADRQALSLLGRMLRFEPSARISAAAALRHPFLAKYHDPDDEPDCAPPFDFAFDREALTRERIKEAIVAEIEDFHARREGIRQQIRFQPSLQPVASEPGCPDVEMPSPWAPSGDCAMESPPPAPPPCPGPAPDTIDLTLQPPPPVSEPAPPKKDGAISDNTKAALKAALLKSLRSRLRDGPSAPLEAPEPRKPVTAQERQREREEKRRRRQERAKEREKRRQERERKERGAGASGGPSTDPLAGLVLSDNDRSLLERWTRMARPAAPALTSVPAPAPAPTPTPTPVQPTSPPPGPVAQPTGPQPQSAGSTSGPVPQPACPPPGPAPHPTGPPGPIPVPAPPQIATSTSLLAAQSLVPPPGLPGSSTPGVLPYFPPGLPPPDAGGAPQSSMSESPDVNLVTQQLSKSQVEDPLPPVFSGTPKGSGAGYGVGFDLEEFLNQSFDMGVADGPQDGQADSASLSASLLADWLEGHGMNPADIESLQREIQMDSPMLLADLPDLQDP

| Compound | Activity [1] [%] | Activity [2] [%] | Activity [3] [%] | Activity [4] [%] | Activity [5] [%] | Activity [6] [%] |
| --- | --- | --- | --- | --- | --- | --- |
| C[C@H](Nc1ncnc2nc[nH]c12)c1cc2cccc(Cl)c2c(=O)n1-c1ccccc1 | 98.5 | 86.4 | 92.9 | 90.1 | 105 | 98.4 |
| CC[C@H](Nc1ncnc2[nH]cnc12)c1nc2cccc(F)c2c(=O)n1-c1ccccc1 | 99.7 | 87.8 | 90.6 | 84.5 | 100 | 99 |
| CC(C)Oc1ccc(-c2nn([C@@H](C)c3oc4ccc(F)cc4c(=O)c3-c3cccc(F)c3)c3ncnc(N)c23)cc1F [UMBRALISIB] | 104 | 87.3 | 103 | 84.8 | 102 | 95.4 |
